Test results as given in US9637499B2, “Benzodioxole or benzodioxepine heterocyclic compounds as phosphodiesterase inhibitors” (LEO PHARMA A/S, priority 2010, dated 2017).

Experiments:
[1] = In vivo pharmacokinetic analyses in rat, oral dosing; conditions: serum, PO dosing 5 mg/kg
Method: One rat is dosed orally (5 mg/kg—dissolved in DMSO/H2O/propylenglycol [1:5:4]) and blood samples are taken from the sublingual venous plexus at 30 min, 1 h, 2 h, 4 h and 6 h. Blood samples are taken in BD Vacutainer SST serum separation tubes, serum is isolated by centrifugation, transferred to micronics tubes and subsequently analysed.
Mass spectrometer (API5000 series) parameters are optimised to analyse for the specific compounds and test injections are performed to confirm the validity of the established generic chromatography method. The generic method is based on fast gradient (2.5 min) analysis on C18 column with mobile phases consisting methanol, ammonium acetate, formic acid and water.
Standards are prepared in rat serum to cover the analytical range 0.1 to 300 ng/ml. Standards, blank serum and study samples are applied to 96 deepwell plate and proteins are precipitated by addition of acetonitrile containing internal standard. Samples are analysed on LC-MS/MS usually overnight. Integration and quantification is performed on ration between analyte and internal standard using Analyst software version 1.5. Pharmacokinetic parameters are calculated using a standardised Excel spreadsheet.
In vivo pharmacokinetic profile in rat of compound 101 disclosed in WO 2008/104175 and compound 105 and 106 disclosed in examples 5 and 6, respectively: […]

[2] = target: Human recombinant PDE4 (Genbank accession no NM_006203) (Homo sapiens (Human), UniProt Q08499); assay: PDE4 Assay (SPA, cAMP cleavage); format: biochemical; conditions: human recombinant PDE4, 1 hour incubation, cAMP 1x10-5 M
Human recombinant PDE4 (Genbank accession no NM_006203), sequence (Q08499 other isoform, or with tags, fused parts or gaps): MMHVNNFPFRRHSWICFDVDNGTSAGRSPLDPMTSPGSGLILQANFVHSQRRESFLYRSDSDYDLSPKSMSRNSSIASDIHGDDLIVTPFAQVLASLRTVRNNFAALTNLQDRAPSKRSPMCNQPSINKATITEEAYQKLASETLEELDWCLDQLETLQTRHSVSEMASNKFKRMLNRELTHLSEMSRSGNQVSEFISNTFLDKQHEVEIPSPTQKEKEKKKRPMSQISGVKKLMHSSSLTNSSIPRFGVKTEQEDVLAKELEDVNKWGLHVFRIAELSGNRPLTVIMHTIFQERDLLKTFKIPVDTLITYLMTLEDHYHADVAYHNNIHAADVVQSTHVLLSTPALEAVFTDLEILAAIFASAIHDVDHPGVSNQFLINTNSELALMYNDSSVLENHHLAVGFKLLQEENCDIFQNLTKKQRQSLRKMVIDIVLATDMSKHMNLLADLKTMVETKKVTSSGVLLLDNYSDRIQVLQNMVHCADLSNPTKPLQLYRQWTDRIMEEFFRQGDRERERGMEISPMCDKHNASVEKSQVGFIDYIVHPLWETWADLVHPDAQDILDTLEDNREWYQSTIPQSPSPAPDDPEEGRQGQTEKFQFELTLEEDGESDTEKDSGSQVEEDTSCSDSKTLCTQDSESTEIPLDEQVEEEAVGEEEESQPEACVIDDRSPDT
Method: At the end of the incubation, the cleavage of the substrate was evaluated by the binding of the AMP product to SPA beads, which generate chemoluminescence when bound to the radioactive tracer. The AMP product inhibited the binding of the radioactive tracer to the beads, and the luminescent signal was competed.
The results were calculated as the molar concentrations resulting in 50% inhibition of the substrate cleavage compared to controls samples, and are expressed as IC50 (M).

Row | bioavailability [1] | IC50 [2] | Structure (SMILES)
1 | 22% | – | O=C(Cc1c(Cl)c[n+]([O-])cc1Cl)c1ccc(OC(F)F)c2c1OC1(CCOCC1)O2 [compound 106, 2-(3,5-Dichloro-1-oxido-pyridine-4-yl)-1-(7-difluoromethoxy-2′,3′,5′,6′-tetrahydro-spiro[1,3-benzodioxole-2,4′-(4H)-pyran]-4-yl)ethanone]
2 | – | 106 nM | O=C(Nc1c(Cl)c[n+](O)cc1Cl)c1ccc(OC(F)F)c2c1OC1(CCS(=O)(=O)CC1)O2 [compound 111, N-(3,5-dichloro-1-oxo-4-pyridyl)-7-(difluoromethoxy)-1′,1′-dioxo-spiro[1,3-benzodioxole-2,4′-thiane]-4-carboxamide]
